From ChEMBL document CHEMBL1129841, “Peptide based inhibitors of interleukin-8: structural simplification and enhanced potency” (Bioorg Med Chem Lett, 1997)
*1 amine or outer side, *2 acyl side, *3 side chain or, on linkers, in order; H or OH if unused. Where a SMILES comes first, the peptide text is derived from it. [ ]: non-standard residue; d: D form. ξ: configuration not given here. 2(aminomethyl)benzoyl = O=C(c1ccccc1CN[*:1])[*:2]; X1 = C[C@@H](CCCC(=O)[*:2])N[*:1]; X2 = C[C@H](CCCN[*:1])C(=O)[*:2]; ξThr(3R) = C[C@@H](O)C(N)C(=O)O; 12Ado = NCCCCCCCCCCCC(=O)O; 3Amb = NCc1cccc(C(=O)O)c1; 4Amb = NCc1ccc(C(=O)O)cc1; Aun = NCCCCCCCCCCC(=O)O; Aoc = NCCCCCCCC(=O)O; Ahx = NCCCCCC(=O)O; ξP = O=C(O)C1CCCN1; Ava = NCCCCC(=O)O; GABA = NCCCC(=O)O

Each compound was assayed against T1, Interleukin-8 (Homo sapiens, UniProt P10145) (assay: Inhibition of Interleukin-8 (IL-8)).
T1 sequence (P10145 whole entry): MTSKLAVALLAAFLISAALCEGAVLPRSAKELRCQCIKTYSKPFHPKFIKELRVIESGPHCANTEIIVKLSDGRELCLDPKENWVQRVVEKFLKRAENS
Work on `CSCC[C@H](NC(C)=O)C(=O)N[C@@H](Cc1c[nH]c2ccccc12)C(=O)N[C@@H](CC(=O)O)C(=O)N[C@@H](Cc1ccccc1)C(=O)N[C@@H](CC(=O)O)C(=O)N[C@@H](CC(=O)O)C(=O)N[C@@H](CC(C)C)C(=O)N[C@@H](CC(N)=O)C(=O)N[C@@H](Cc1ccccc1)C(=O)NCc1ccccc1C(=O)N[C@@H](CCSC)C(=O)N1CCC[C@H]1C(=O)N1CCC[C@H]1C(=O)N[C@@H](C)C(=O)N[C@@H](CC(=O)O)C(=O)N[C@@H](CCC(=O)O)C(=O)N[C@@H](CC(=O)O)C(=O)N[C@@H](Cc1ccc(O)cc1)C(=O)N[C@@H](CO)C(=O)N1CCCC1C(N)=O` (some centres undefined) (Ac-MWDFDDLNF[2(aminomethyl)benzoyl]MPPADEDYS[ξP]-NH2) yielded a Ki of 9.3 µM.
In the case of `CSCC[C@H](NC(C)=O)C(=O)N[C@@H](Cc1c[nH]c2ccccc12)C(=O)N[C@@H](CC(=O)O)C(=O)N[C@@H](Cc1ccccc1)C(=O)N[C@@H](CC(=O)O)C(=O)N[C@@H](CC(=O)O)C(=O)N[C@@H](CC(C)C)C(=O)N[C@@H](CC(N)=O)C(=O)N[C@@H](Cc1ccccc1)C(=O)NCc1cccc(C(=O)N[C@@H](CCSC)C(=O)N2CCC[C@H]2C(=O)N2CCC[C@H]2C(=O)N[C@@H](C)C(=O)N[C@@H](CC(=O)O)C(=O)N[C@@H](CCC(=O)O)C(=O)N[C@@H](CC(=O)O)C(=O)N[C@@H](Cc2ccc(O)cc2)C(=O)N[C@@H](CO)C(=O)N2CCC[C@H]2C(N)=O)c1` (Ac-MWDFDDLNF[3Amb]MPPADEDYSP-NH2), the Ki is reported as 4 µM.
Compound `CSCC[C@H](NC(C)=O)C(=O)N[C@@H](Cc1c[nH]c2ccccc12)C(=O)N[C@@H](CC(=O)O)C(=O)N[C@@H](Cc1ccccc1)C(=O)N[C@@H](CC(=O)O)C(=O)N[C@@H](CC(=O)O)C(=O)N[C@@H](CC(C)C)C(=O)N[C@@H](CC(N)=O)C(=O)N[C@@H](Cc1ccccc1)C(=O)NCc1ccc(C(=O)N[C@@H](CCSC)C(=O)N2CCC[C@H]2C(=O)N2CCC[C@H]2C(=O)N[C@@H](C)C(=O)N[C@@H](CC(=O)O)C(=O)N[C@@H](CCC(=O)O)C(=O)N[C@@H](CC(=O)O)C(=O)N[C@@H](Cc2ccc(O)cc2)C(=O)N[C@@H](CO)C(=O)N2CCC[C@H]2C(N)=O)cc1` (Ac-MWDFDDLNF[4Amb]MPPADEDYSP-NH2) has a Ki of 2.3 µM.
`CSCC[C@H](NC(C)=O)C(=O)N[C@@H](Cc1c[nH]c2ccccc12)C(=O)N[C@@H](CC(=O)O)C(=O)N[C@@H](Cc1ccccc1)C(=O)N[C@@H](CC(=O)O)C(=O)N[C@@H](CC(=O)O)C(=O)N[C@@H](CC(C)C)C(=O)N[C@@H](CC(N)=O)C(=O)N[C@@H](Cc1ccccc1)C(=O)NCCCCC(=O)N[C@@H](CCSC)C(=O)N1CCC[C@H]1C(=O)N1CCC[C@H]1C(=O)N[C@@H](C)C(=O)N[C@@H](CC(=O)O)C(=O)N[C@@H](CCC(=O)O)C(=O)N[C@@H](CC(=O)O)C(=O)N[C@@H](Cc1ccc(O)cc1)C(=O)N[C@@H](CO)C(=O)N1CCC[C@H]1C(N)=O` (Ac-MWDFDDLNF[Ava]MPPADEDYSP-NH2) showed a Ki of 13 µM.
Work on `CSCC[C@H](NC(C)=O)C(=O)N[C@@H](Cc1c[nH]c2ccccc12)C(=O)N[C@@H](CC(=O)O)C(=O)N[C@@H](Cc1ccccc1)C(=O)N[C@@H](CC(=O)O)C(=O)N[C@@H](CC(=O)O)C(=O)N[C@@H](CC(C)C)C(=O)N[C@@H](CC(N)=O)C(=O)N[C@@H](Cc1ccccc1)C(=O)N[C@@H](C)CCCC(=O)N[C@@H](CCSC)C(=O)N1CCC[C@H]1C(=O)N1CCC[C@H]1C(=O)N[C@@H](C)C(=O)N[C@@H](CC(=O)O)C(=O)N[C@@H](CCC(=O)O)C(=O)N[C@@H](CC(=O)O)C(=O)N[C@@H](Cc1ccc(O)cc1)C(=O)N[C@@H](CO)C(=O)N1CCC[C@H]1C(N)=O` (Ac-MWDFDDLNF[X1]MPPADEDYSP-NH2) yielded a Ki of 10 µM.
With `CSCC[C@H](NC(C)=O)C(=O)N[C@@H](Cc1c[nH]c2ccccc12)C(=O)N[C@@H](CC(=O)O)C(=O)N[C@@H](Cc1ccccc1)C(=O)N[C@@H](CC(=O)O)C(=O)N[C@@H](CC(=O)O)C(=O)N[C@@H](CC(C)C)C(=O)N[C@@H](CC(N)=O)C(=O)N[C@@H](Cc1ccccc1)C(=O)NC(C(=O)NCCCCC(=O)N1CCC[C@H]1C(=O)N1CCC[C@H]1C(=O)N[C@@H](C)C(=O)N[C@@H](CC(=O)O)C(=O)N[C@@H](CCC(=O)O)C(=O)N[C@@H](CC(=O)O)C(=O)N[C@@H](Cc1ccc(O)cc1)C(=O)N[C@@H](CO)C(=O)N1CCC[C@H]1C(N)=O)[C@@H](C)O` (stereo partly drawn) (Ac-MWDFDDLNF[ξThr(3R)][Ava]PPADEDYSP-NH2) the Ki was 106 µM.
`CSCC[C@H](NC(C)=O)C(=O)N[C@@H](Cc1c[nH]c2ccccc12)C(=O)N[C@@H](CC(=O)O)C(=O)N[C@@H](Cc1ccccc1)C(=O)N[C@@H](CC(=O)O)C(=O)N[C@@H](CC(=O)O)C(=O)N[C@@H](CC(C)C)C(=O)N[C@@H](CC(N)=O)C(=O)N[C@@H](Cc1ccccc1)C(=O)NC(C(=O)NCCC[C@@H](C)C(=O)N1CCC[C@H]1C(=O)N1CCC[C@H]1C(=O)N[C@@H](C)C(=O)N[C@@H](CC(=O)O)C(=O)N[C@@H](CCC(=O)O)C(=O)N[C@@H](CC(=O)O)C(=O)N[C@@H](Cc1ccc(O)cc1)C(=O)N[C@@H](CO)C(=O)N1CCC[C@H]1C(N)=O)[C@@H](C)O` (stereo partly drawn) (Ac-MWDFDDLNF[ξThr(3R)][X2]PPADEDYSP-NH2) gave a Ki of 383 µM.
In the case of `CSCC[C@H](NC(C)=O)C(=O)N[C@@H](Cc1c[nH]c2ccccc12)C(=O)N[C@@H](CC(=O)O)C(=O)N[C@@H](Cc1ccccc1)C(=O)N[C@@H](CC(=O)O)C(=O)N[C@@H](CC(=O)O)C(=O)NCCCCCCCCCCCC(=O)N[C@@H](CCSC)C(=O)N1CCC[C@H]1C(=O)N1CCC[C@H]1C(=O)N[C@@H](C)C(=O)N[C@@H](CC(=O)O)C(=O)N[C@@H](CCC(=O)O)C(=O)N[C@@H](CC(=O)O)C(=O)N[C@@H](Cc1ccc(O)cc1)C(=O)N[C@@H](CO)C(=O)N1CCC[C@H]1C(N)=O` (Ac-MWDFDD[12Ado]MPPADEDYSP-NH2), the Ki is reported as 4 µM.
With `CSCC[C@H](NC(C)=O)C(=O)N[C@@H](Cc1c[nH]c2ccccc12)C(=O)N[C@@H](CC(=O)O)C(=O)N[C@@H](Cc1ccccc1)C(=O)N[C@@H](CC(=O)O)C(=O)N[C@@H](CC(=O)O)C(=O)NCCCCCC(=O)N[C@@H](CCSC)C(=O)N1CCC[C@H]1C(=O)N1CCC[C@H]1C(=O)N[C@@H](C)C(=O)N[C@@H](CC(=O)O)C(=O)N[C@@H](CCC(=O)O)C(=O)N[C@@H](CC(=O)O)C(=O)N[C@@H](Cc1ccc(O)cc1)C(=O)N[C@@H](CO)C(=O)N1CCC[C@H]1C(N)=O` (Ac-MWDFDD[Ahx]MPPADEDYSP-NH2) the Ki was 7 µM.
`CSCC[C@H](NC(C)=O)C(=O)N[C@@H](Cc1c[nH]c2ccccc12)C(=O)N[C@@H](CC(=O)O)C(=O)N[C@@H](Cc1ccccc1)C(=O)N[C@@H](CC(=O)O)C(=O)N[C@@H](CC(=O)O)C(=O)NCCCCCCCC(=O)N[C@@H](CCSC)C(=O)N1CCC[C@H]1C(=O)N1CCC[C@H]1C(=O)N[C@@H](C)C(=O)N[C@@H](CC(=O)O)C(=O)N[C@@H](CCC(=O)O)C(=O)N[C@@H](CC(=O)O)C(=O)N[C@@H](Cc1ccc(O)cc1)C(=O)N[C@@H](CO)C(=O)N1CCC[C@H]1C(N)=O` (Ac-MWDFDD[Aoc]MPPADEDYSP-NH2) gave a Ki of 12 µM.
Work on `CSCC[C@H](NC(C)=O)C(=O)N[C@@H](Cc1c[nH]c2ccccc12)C(=O)N[C@@H](CC(=O)O)C(=O)N[C@@H](Cc1ccccc1)C(=O)N[C@@H](CC(=O)O)C(=O)N[C@@H](CC(=O)O)C(=O)NCCCCCCCCCCC(=O)N[C@@H](CCSC)C(=O)N1CCC[C@H]1C(=O)N1CCC[C@H]1C(=O)N[C@@H](C)C(=O)N[C@@H](CC(=O)O)C(=O)N[C@@H](CCC(=O)O)C(=O)N[C@@H](CC(=O)O)C(=O)N[C@@H](Cc1ccc(O)cc1)C(=O)N[C@@H](CO)C(=O)N1CCC[C@H]1C(N)=O` (Ac-MWDFDD[Aun]MPPADEDYSP-NH2) yielded a Ki of 6 µM.
For `CSCC[C@H](NC(C)=O)C(=O)N[C@@H](Cc1c[nH]c2ccccc12)C(=O)N[C@@H](CC(=O)O)C(=O)N[C@@H](Cc1ccccc1)C(=O)N[C@@H](CC(=O)O)C(=O)N[C@@H](CC(=O)O)C(=O)NCCCC(=O)N[C@@H](CCSC)C(=O)N1CCC[C@H]1C(=O)N1CCC[C@H]1C(=O)N[C@@H](C)C(=O)N[C@@H](CC(=O)O)C(=O)N[C@@H](CCC(=O)O)C(=O)N[C@@H](CC(=O)O)C(=O)N[C@@H](Cc1ccc(O)cc1)C(=O)N[C@@H](CO)C(=O)N1CCC[C@H]1C(N)=O` (Ac-MWDFDD[GABA]MPPADEDYSP-NH2), the Ki was 14 µM.
Ac-MWDFDDGMPPADEDYSP-NH2 gave a Ki of 31 µM.
Ac-MWDFDDLNFTGMPPADEDYSP-NH2 gave a Ki of 13 µM.
